The text below walks through data of patent publication US4110322A, “Peptide derivatives and pharmaceutical compositions containing same” (Akzona Incorporated, priority 1976, dated 1978).

Where no end group is shown, it is not given here. [ ]: non-standard residue; d: D form.

The subject of test [1] is extinction of conditioned flight behaviour. The following applies: cited from earlier work; for retardation of the extinction of conditioned flight behaviour: European Journal of Pharmacology 2, 14 (1967).
Test [2] shares this test system. Description: inhibition (retardation) of the extinction of conditioned flight behaviour; psychopharmacological activity. Type of test: in vivo. To be noted: for Potency Ratio with Respect to 4-10 ACTH: 4-10 ACTH = 1. The source says:
This invention relates to the field of pharmaceutical compounds, and to the sub-field of psychopharmacologically active compounds. The compounds in question show an inhibition of the extinction of conditioned flight behaviour, as a result of which they are eminently suitable for the treatment of mental disorders in which a stimulation of the cerebral function is desired, such as in case of senility. The invention further relates to pharmaceutical compositions containing these peptide compounds or their derivatives where the latter are an active constituent.

With “4-10 ACTH: the peptide containing the amino-acid sequence 4-10 from ACTH (MEHFRWG; Corticotropin; UniProt P01189 141-147, looked up, fragment)”, the “retardation of the extinction of conditioned flight behaviour” value in test [1] is reported as “as active as ACTH itself”.

As for “ACTH: natural adrenocorticotropic hormone (SYSMEHFRWGKPVGKKRRPVKVYPNGAEDESAEAFPLEF; Corticotropin; UniProt P01189 138-176, looked up)”, the “retardation of the extinction of conditioned flight behaviour” value in test [1] was “retard the extinction”.

For the substance FRWGKPVGKK [7-16 ACTH], the “Potency Ratio with Respect to 4-10 ACTH” value in test [2] (Table I) and in test [2] (Table II) was 1 throughout.

Regarding F[dK]FGKPVGK, the “Potency Ratio with Respect to 4-10 ACTH” value in test [2] (Table II) is listed as 1.

Turning to F[dK]FGKPVGKK, the “Potency Ratio with Respect to 4-10 ACTH” value in test [2] (Table I) and in test [2] (Table II) was 100 throughout.

For the substance F[dK]FG[dK]PVGKK, the “Potency Ratio with Respect to 4-10 ACTH” value in test [2] (Table II) was 10,000.

With “H-L-Met (→ O)-L-Glu-L-His-L-Phe-D-Lys-L-Phe-OH”, in test [1] (psychopharmacological activity, peptide of the earlier U.S. patents), the “activity relative to the unchanged 4-9 ACTH” value is recorded as “about 1000 times”.

As to Phe-Arg-Trp [7-9 ACTH], the “Potency Ratio with Respect to 4-10 ACTH” value in test [2] (Table I) is on record as 0.1.

In the case of Phe-[dK]-Phe, the “Potency Ratio with Respect to 4-10 ACTH” value in test [2] (Table I) is 0.1. The “psychopharmacological activity (in words)” value in test [2] (in vivo) is on record as “some psychopharmacological activity, although in a latent form”.
